According to patent US9695179B2, “Methods and compositions for inhibition of bromodomain-containing proteins” (CONVERGENE LLC, priority 2013, dated 2017):

How the values were obtained:
[1] = system: MV4-11 acute myeloid leukemia cells; test: In vitro cell viability (AlamarBlue), MV4-11; assay type: cell-based; details: Homo sapiens, MV4-11 cells, 72-hour incubation, read-out: In Vitro Cell Viability (IC50) MV4-11 Cells (AML)
Procedure: (§1) MV4-11 acute myeloid leukemia cells (American Type Culture Collection, Manassas, Va.) were added to 96-well clear bottom assay plates containing RPMI-1640 medium supplemented with 10% fetal bovine serum (FBS) at approximately 30,000 cells/well and incubated for 24 hours at 37° C. with 5% CO2 and 95% humidity. Control wells containing no cells were included to measure background fluorescence signal. Test compounds were dissolved at […] and diluted two-fold in DMSO to produce a working stock of compound solutions. Aliquots of the working stock solutions were subsequently diluted 100-fold in basal RPMI-1640 medium which was then further diluted 10-fold to the assay plate containing the cells to provide 10 test concentrations ranging from 0.04 μM-20 μM. Following a 72-hour incubation period, viability of the cells was determined by the AlamarBlue® assay (Life Technologies, Carlsbad, Calif.) following the manufacturer's protocol. Prior to generation of dose response curves, the data were background subtracted using the no cell control values (mean+/−standard deviation) and fluorescence values versus Log10 concentration of test compounds were plotted using GraphPad Prism. The resulting sigmoidal curve was then fit to the graph and IC50 values were calculated using a 4 parameter (4PL) algorithm using the following equation: 4(PL)F(x)=(A−D)/(1+(x/c)^B+D, where A=lower asymptote (baseline response), D=upper asymptote (maximum response), C=drug concentration that provokes a response halfway between A and D, B=slope of the curve. The results for selected compounds are set forth in Table 7.

[2] = system: MM1.S Cells (Multiple Myeloma); test: In vitro cell viability, MM1.S; assay type: cell-based; details: Homo sapiens
Procedure: [Worded in the source for another cell line; this cell line is reported under the same test.] as §1

BRD4-BD1-BD2 = BRD4-BD1-BD2 (Homo sapiens (Human), UniProt O60885); test: AlphaScreening assay, recombinant BRD4-BD1-BD2 and BET Ligand; assay type: binding; details: 2.5 nM BRD4-BD1-BD2, BET Ligand
Procedure: Assays were performed by AlphaScreening technology using a recombinant BRD4-BD1-BD2 and BET Ligand. The AlphaScreening signal from the assay was correlated with the amount of BET Ligand binding to the bromodomain. The compounds were diluted in 50% DMSO and 1 μl of the dilution was added to a 10 μl reaction so that the final concentration of DMSO is 5% in all of reactions. All reactions were conducted at room temperature. The 9 μl reaction mixture in BRD Assay Buffer contains 2.5 nM BRD4-BD1-BD2 and the indicated amount of the inhibitor, and the reaction mixture were incubated for 30 min followed by additional 30 min incubation after the addition of 1 μl of BET Ligand (Table 2.3.1). For the negative control (blank), 1 μl of the assay buffer was added instead of the BET Ligand. After the 30 min incubation with the BET Ligand, 20 μl of BRD Detection buffer containing 10 μg/ml Glutathione acceptor beads and 10 μg/ml Streptavidin Donor beads was added and the final 30 μl mixture was incubated for 50 min in a dark room.
AlphaScreening signal was measured using EnSpire Alpha 2390 Multilabel reader (Perkin Elmer). Binding experiments were performed in duplicate at each concentration. The AlphaScreening data were analyzed using the computer software, Graphpad Prism. In the absence of the compound, the AlphaScreening signal (At) in each data set was defined as 100% activity. In the absence of the BET Ligand, the AlphaScreening signal (Ab) in each data set was defined as 0% activity. The percent activity in the presence of each compound was calculated according to the following equation: % activity=[(A−Ab)/(At−Ab)]×100, where A=the AlphaScreening signal in the presence of the compound, Ab=the AlphaScreening signal in the absence of the BET Ligand, and At=the AlphaScreening signal in the absence of the compound. The percent inhibition was calculated for certain compounds according to the following equation: % inhibition=100−% activity.

IC50 [1] [nM]	IC50 [2] [nM]	inhibition at 10 µM (BRD4-BD1-BD2) [%]	% inhibition at 10 μM (BRD4-BD1-BD2) [%]	SMILES
3570	31900			COc1ccc(/C=C/C(=O)c2c(-c3ccccc3)c3cc(Cl)ccc3[nH]c2=O)cc1OC [Compound 6, 6-chloro-3-(3-(3,4-dimethoxyphenyl)acryloyl)-4-phenylquinolin-2(1H)-one]
710	14100			O=C(/C=C/c1ccccc1)c1c(-c2ccccc2)c2cc(Cl)cnc2[nH]c1=O [Compound 14, 6-chloro-3-cinnamoyl-4-phenyl-1,8-naphthyridin-2(1H)-one]
4730	3100			Cc1ccccc1CNC(=O)c1c(-c2ccccc2)c2cc(Cl)ccc2[nH]c1=O [Compound 13, 6-chloro-N-(2-methylbenzyl)-2-oxo-4-phenyl-1,2-dihydroquinoline-3-carboxamide]
1490	2530			COc1ccccc1/C=C/C(=O)c1c(-c2ccccc2)c2cc(Cl)ccc2[nH]c1=O [Compound 5, 6-chloro-3-(3-(2-methoxyphenyl)acryloyl)-4-phenylquinolin-2(1H)-one]
1750	3000			COc1ccc(OC)c(/C=C/C(=O)c2c(-c3ccccc3)c3cc(Br)ccc3[nH]c2=O)c1 [Compound 10, 6-bromo-3-(3-(2,5-dimethoxyphenyl)acryloyl)-4-phenylquinolin-2(1H)-one]
970	4210			O=C(/C=C/c1ccccc1)c1c(-c2ccncc2)c2cc(Cl)ccc2[nH]c1=O [Compound 11, 6-chloro-3-cinnamoyl-4-(pyridin-4-yl)quinolin-2(1H)-one]
		70		Cc1ccc(-c2nnc(Sc3c(-c4ccccc4)c4cc(Cl)ccc4[nH]c3=O)n2/N=C/c2ccccc2)cc1 [drawing 646]
		99		COc1ccc(Cn2c(=O)c(-c3coc(C)n3)c(OS(=O)(=O)c3ccc4ccccc4c3)c3cc(Cl)ccc32)cc1 [drawing 656]
		62		Cc1noc(C)c1-c1ccc2[nH]c(=O)c(C(=O)/C=C/c3ccccc3)c(-c3cccnc3)c2c1 [drawing 644]
		82		Cc1noc(C)c1-c1ccc2[nH]c(=O)cc(-c3ccccc3)c2c1
		98		COc1ccc(Cn2c(=O)c(-c3coc(C)n3)c(OS(=O)(=O)c3cccc4cccnc34)c3cc(Cl)ccc32)cc1 [drawing 652]
		74		Cc1noc(C)c1-c1ccc2c(c1)c(-c1ccccc1)cc(=O)n2Cc1ccccc1
1040	2440			Cc1ccccc1/C=C/C(=O)c1c(-c2cccnc2)c2cc(Cl)ccc2[nH]c1=O [Compound 12, 6-chloro-4-(pyridin-3-yl)-3-(3-o-tolylacryloyl)quinolin-2(1H)-one]
			71	Cc1ccc(-c2nnc(Sc3c(-c4ccccc4)c4cc(Cl)ccc4[nH]c3=O)n2/N=C/c2ccccc2)cc1 [drawing 647]
		99		Cc1noc(C)c1-c1ccc2[nH]c(=O)cc(NCc3ccccc3)c2c1
